This is an account of results in the NIST ThermoML archive (doi:10.1016/j.fluid.2017.09.010).

± gives the expanded uncertainty stated by the source.

The conditions of this data set: Liquid, Ebulliometric method (Recirculating still).

Turning to `CC(=O)OC(C)C` [1-methylethyl ethanoate], the “vapor or sublimation pressure” value (361.8 K) is 101 ± 1 kPa.

With `CC(C)O` [propan-2-ol], the “vapor or sublimation pressure” value (355.4 K) is listed as 101 ± 1 kPa.

Turning to `CCCOC(C)=O` [propyl ethanoate], the “vapor or sublimation pressure” value (374.2 K) came out at 101 ± 1 kPa.

As to `O` [water], the “vapor or sublimation pressure” value (373 K) is given as 101 ± 5 kPa.
